{"source": "patent US10654837B2", "about": "“Sulphamoylaryl derivatives and use thereof as medicaments for the treatment of liver fibrosis” (Janssen Pharmaceutica NV, priority 2017, dated 2020)"}
{"biological_target": "T1, 5HTR2B (Homo sapiens, UniProt P41595)", "T1 construct": "host or cells: human Maverick/293 cells", "T1 sequence (P41595 whole entry)": "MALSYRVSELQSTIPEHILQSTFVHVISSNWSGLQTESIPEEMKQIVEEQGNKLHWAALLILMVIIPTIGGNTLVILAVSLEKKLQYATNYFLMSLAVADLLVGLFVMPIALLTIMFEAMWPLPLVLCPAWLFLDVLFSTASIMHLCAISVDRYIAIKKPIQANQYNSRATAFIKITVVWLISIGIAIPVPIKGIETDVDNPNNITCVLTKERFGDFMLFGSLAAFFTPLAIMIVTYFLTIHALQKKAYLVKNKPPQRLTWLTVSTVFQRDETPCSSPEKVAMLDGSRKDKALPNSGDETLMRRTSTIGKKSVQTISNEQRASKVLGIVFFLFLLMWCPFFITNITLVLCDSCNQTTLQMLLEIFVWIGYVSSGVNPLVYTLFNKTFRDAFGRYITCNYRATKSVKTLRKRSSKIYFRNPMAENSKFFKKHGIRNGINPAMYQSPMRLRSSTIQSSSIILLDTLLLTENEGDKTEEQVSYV", "assay": "5HTR2B antagonist activity, calcium mobilization assay in human Maverick/293 cells (serotonin as agonist)", "format": "cell-based", "conditions": "intracellular calcium, emission 525 nm, read-out: Ca assay IC50", "procedure": "The 5HTR2B antagonist activity was measured using human Maverick/293 cells in a calcium mobilization assay. The measurement starting with plating human Maverick/293 cells (log phase) onto 96-well black and incubate at 37° C. overnight, Followed by starving cells for 2 h by changing complete medium to DMEM without FBS, removing the medium from the 96-well plate. Loading staining calcium buffer into each well and incubated the plate at 37° C. for 50 min. After removal of staining calcium buffer, diluted antagonist were added into the well, incubate 15 to 30 minutes. Dispense serotonin as the 5HTR2B agonists into each well. Intracellular calcium concentration is recorded for 80 seconds by monitoring an emission at a wavelength of 525 nm with an excitation wavelength of 485 nm. Inhibition efficiency of the cell line was determined following the equation: % Inhibition=100%−(D−B)/(S−B)*100%. (S: The peak value in the presence of agonist serotonin; D: The peak value in the presence of different dilution compound or serotonin; B: The peak value in the presence of calcium HBSS buffer only). […] A dose response curve was fitted using nonlinear regression model with a sigmoidal dose response. The IC50 was automatically produced by GraphPad Prism 5.0.", "units": {"IC50": "nM"}}
{"smiles": "COc1ccc(S(=O)(=O)N[C@H]2CCOC2)cc1C(=O)Nc1ccccc1OC(F)F", "note": "[Compound 128, (S)—N-(2-(Difluoromethoxy)phenyl)-2-methoxy-5-(N-(tetrahydrofuran-3-yl)sulfamoyl)benzamide]", "IC50": 1.2}
{"smiles": "[2H]C([2H])([2H])Oc1ccc(S(=O)(=O)N[C@H]2CCOC2)cc1C(=O)Nc1ccc(F)cc1", "note": "[Compound 190, (S)—N-(4-fluorophenyl)-2-(methoxy-d3)-5-(N-(tetrahydrofuran-3-yl)sulfamoyl) benzamide]", "IC50": 0.9}
{"smiles": "COc1ccc(S(=O)(=O)N[C@H]2C[C@@H](O)C2)cc1C(=O)Nc1ccc(F)cc1F", "note": "[Compound 145b, N-(2,4-difluorophenyl)-5-(N-((cis)-3-hydroxycyclobutyl)sulfamoyl)-2-methoxybenzamide]", "IC50": 1}
{"smiles": "CCNS(=O)(=O)c1ccc(OC)c(C(=O)Nc2ccc(F)c(C)n2)c1", "note": "[Compound 26, 5-(N-Ethylsulfamoyl)-N-(5-fluoro-6-methylpyridin-2-yl)-2-methoxybenzamide]", "IC50": 1.3}
{"smiles": "COc1ccc(S(=O)(=O)N[C@H]2CCOC2)cc1C(=O)Nc1ccc(C#N)c(F)c1", "note": "[Compound 90]", "IC50": 1360}
{"smiles": "COc1ccc(S(=O)(=O)N[C@@H](C)CO)cc1C(=O)Nc1ccc(F)c(C)c1", "note": "[Compound 10a, (S)—N-(4-Fluoro-3-methylphenyl)-5-(N-(1-hydroxypropan-2-yl)sulfamoyl)-2-methoxybenzamide]", "IC50": 4.5}
{"smiles": "COc1ccc(S(=O)(=O)N[C@H]2CCOC2)cc1C(=O)Nc1cccc(Br)c1", "note": "[Compound 124, (S)—N-(3-Bromophenyl)-2-methoxy-5-(N-(tetrahydrofuran-3-yl)sulfamoyl) benzamide]", "IC50": 6.3}
{"smiles": "COc1ccccc1NC(=O)c1cc(S(=O)(=O)N[C@H]2CCOC2)ccc1OC", "note": "[Compound 166, (S)-2-Methoxy-N-(2-methoxyphenyl)-5-(N-(tetrahydrofuran-3-yl)sulfamoyl) benzamide]", "IC50": 0.16}
{"smiles": "COc1ccc(S(=O)(=O)N[C@@H]2CC[C@H](O)C2)cc1C(=O)Nc1ccc(F)cc1", "note": "(single isomer, unassigned) [Compound 45a, N-(4-Fluorophenyl)-5-(N-((cis)-3-hydroxycyclopentyl)sulfamoyl)-2-methoxybenzamide]", "IC50": 1.3}
{"smiles": "COc1ccc(S(=O)(=O)N[C@H]2C[C@@H](O)C2)cc1C(=O)Nc1ccc(Cl)cc1F", "note": "[Compound 143b, N-(4-chloro-2-fluorophenyl)-5-(N-((cis)-3-hydroxycyclobutyl)sulfamoyl)-2-methoxybenzamide]", "IC50": 5.9}
{"smiles": "COc1ccc(S(=O)(=O)N[C@H]2C[C@@H](O)C2)cc1C(=O)Nc1c(C)cccc1Cl", "note": "[Compound 138b, N-(2-Chloro-6-methylphenyl)-5-(N-((cis)-3-hydroxycyclobutyl)sulfamoyl)-2-methoxybenzamide]", "IC50": 329}
{"smiles": "COc1ccc(S(=O)(=O)N[C@H](C)C(N)=O)cc1C(=O)Nc1ccc(F)c(C)c1", "note": "[Compound 12b, (R)-5-(N-(1-Amino-1-oxopropan-2-yl)sulfamoyl)-N-(4-fluoro-3-methylphenyl)-2-methoxybenzamide]", "IC50": 122}
{"smiles": "COc1ccc(S(=O)(=O)N[C@H]2CCOC2)cc1C(=O)Nc1ccccc1Cl", "note": "[Compound 127, (S)—N-(2-Chlorophenyl)-2-methoxy-5-(N-(tetrahydrofuran-3-yl)sulfamoyl) benzamide]", "IC50": 0.1}
{"smiles": "COc1ccc(S(=O)(=O)N[C@H]2CCOC2)cc1C(=O)Nc1cccc(C(F)(F)F)c1", "note": "[Compound 109, (S)-2-Methoxy-5-(N-(tetrahydrofuran-3-yl)sulfamoyl)-N-(3-(trifluoromethyl)phenyl)benzamide]", "IC50": 231}
{"smiles": "COc1ccc(S(=O)(=O)NC(C)CO)cc1C(=O)Nc1ccc(F)c(C)c1", "note": "(stereo not drawn) [Compound 10, N-(4-Fluoro-3-methylphenyl)-5-(N-(1-hydroxypropan-2-yl)sulfamoyl)-2-methoxybenzamide]", "IC50": 4.5}
{"smiles": "COc1ccc(S(=O)(=O)N[C@H]2CCOC2)cc1C(=O)Nc1ccc(C#N)cc1", "note": "[Compound 104, (S)—N-(4-Cyanophenyl)-2-methoxy-5-(N-(tetrahydrofuran-3-yl)sulfamoyl) benzamide]", "IC50": 201}
{"smiles": "COc1ccc(S(=O)(=O)N[C@H]2CCOC2)cc1C(=O)Nc1cc(Cl)cc(Cl)c1", "note": "[Compound 86, (S)—N-(3,5-Dichlorophenyl)-2-methoxy-5-(N-(tetrahydrofuran-3-yl)sulfamoyl) benzamide]", "IC50": 1.8}
{"smiles": "COc1ccc(S(=O)(=O)N[C@H]2CCNC2)cc1C(=O)Nc1cc(F)ccc1Cl", "note": "[Compound 186, (S)—N-(2-chloro-5-fluorophenyl)-2-methoxy-5-(N-(pyrrolidin-3-yl)sulfamoyl) benzamide]", "IC50": 0.3}
{"smiles": "COc1ccc(S(=O)(=O)NC(C)C)cc1C(=O)Nc1ccc(F)c(C)n1", "note": "[Compound 25, N-(5-Fluoro-6-methylpyridin-2-yl)-5-(N-isopropylsulfamoyl)-2-methoxy benzamide]", "IC50": 1.4}
{"smiles": "COc1ccc(S(=O)(=O)N[C@H]2CCOC2)cc1C(=O)Nc1nc(C)c(C)s1", "note": "[Compound 83, (S)—N-(4,5-dimethylthiazol-2-yl)-2-methoxy-5-(N-(tetrahydrofuran-3-yl)sulfamoyl)benzamide]", "IC50": 126}
{"smiles": "COc1ccc(S(=O)(=O)N[C@H]2C[C@@H](O)C2)cc1C(=O)Nc1ccc(F)c(C)c1F", "note": "[Compound 173, N-(2,4-Difluoro-3-methylphenyl)-5-(N-((cis)-3-hydroxycyclobutyl)sulfamoyl)-2-methoxybenzamide]", "IC50": 0.8}
{"smiles": "COc1ccc(S(=O)(=O)N[C@@H](C)CO)cc1C(=O)Nc1ccc(F)cc1", "note": "[Compound 49a, (S)—N-(4-Fluorophenyl)-5-(N-(1-hydroxypropan-2-yl)sulfamoyl)-2-methoxybenzamide]", "IC50": 3.4}
{"smiles": "COc1ccc(S(=O)(=O)N[C@H]2CCOC2)cc1C(=O)Nc1ccc(C(F)(F)F)cc1", "note": "[Compound 101, (S)-2-Methoxy-5-(N-(tetrahydrofuran-3-yl)sulfamoyl)-N-(4-(trifluoromethyl)phenyl)benzamide]", "IC50": 219}
{"smiles": "COC[C@@H](C)NS(=O)(=O)c1ccc(OC)c(C(=O)Nc2ccc(F)cc2)c1", "note": "(single isomer, unassigned) [Compound 40b, (R*)—N-(4-Fluorophenyl)-2-methoxy-5-(N-(1-methoxypropan-2-yl)sulfamoyl) benzamide]", "IC50": 9.5}
{"smiles": "COc1ccc(S(=O)(=O)N[C@H]2C[C@H](O)C2)cc1C(=O)Nc1c(C)cccc1Cl", "note": "[Compound 138a, N-(2-Chloro-6-methylphenyl)-5-(N-((trans)-3-hydroxycyclobutyl)sulfamoyl)-2-methoxybenzamide]", "IC50": 159}
{"smiles": "COc1ccc(S(N)(=O)=O)cc1C(=O)Nc1ccc(F)cc1F", "note": "[Compound 148, N-(2,4-Difluorophenyl)-2-methoxy-5-sulfamoylbenzamide]", "IC50": 161}
{"smiles": "COc1ccc(S(=O)(=O)N[C@@H](C)C(N)=O)cc1C(=O)Nc1ccc(F)c(C)c1", "note": "[Compound 12a, (S)-5-(N-(1-Amino-1-oxopropan-2-yl)sulfamoyl)-N-(4-fluoro-3-methylphenyl)-2-methoxybenzamide]", "IC50": 1.8}
{"smiles": "COc1ccc(S(=O)(=O)N[C@H]2CCOC2)cc1C(=O)Nc1ncc(F)cc1Cl", "note": "[Compound 119]", "IC50": 1.4}
{"smiles": "COc1ccc(S(=O)(=O)N[C@H]2CCN(C)C2=O)cc1C(=O)Nc1ccccc1Cl", "note": "(single isomer, unassigned) [Compound 54a, (S*)—N-(2-Chlorophenyl)-2-methoxy-5-(1-methyl-2-oxopyrrolidin-3-yl) sulfamoyl)benzamide]", "IC50": 1.1}
{"smiles": "COc1ccc(S(=O)(=O)N[C@H]2C[C@@H](O)C2)cc1C(=O)Nc1ccc(F)c(C(F)F)c1", "note": "[Compound 142b, N-(3-(difluoromethyl)-4-fluorophenyl)-5-(N-((cis)-3-hydroxycyclobutyl)sulfamoyl)-2-methoxybenzamide]", "IC50": 1.1}
{"smiles": "COc1ccc(S(=O)(=O)N[C@@H](C)CO)cc1C(=O)Nc1ccc(F)cc1", "note": "[Compound 52a, (S)—N-(4-fluorophenyl)-5-(N-(1-hydroxypropan-2-yl)sulfamoyl)-2-methoxybenzamide]", "IC50": 50}
{"smiles": "COc1ccc(S(=O)(=O)N[C@H]2CCNC2)cc1C(=O)Nc1ccccc1Cl", "note": "[Compound 179, (S)—N-(2-Chlorophenyl)-2-methoxy-5-(N-(pyrrolidin-3-yl)sulfamoyl)benzamide]", "IC50": 0.1}
{"smiles": "COc1ccc(S(=O)(=O)N[C@H]2CCOC2)cc1C(=O)Nc1ccc(F)c(Cl)c1", "note": "[Compound 112, (S)—N-(3-Chloro-4-fluorophenyl)-2-methoxy-5-(N-(tetrahydrofuran-3-yl)sulfamoyl)benzamide]", "IC50": 2.9}
{"smiles": "COc1ccc(S(=O)(=O)N[C@H]2CCOC2)cc1C(=O)Nc1ccccc1C1CC1", "note": "[Compound 151, (S)—N-(2-Cyclopropylphenyl)-2-methoxy-5-(N-(tetrahydrofuran-3-yl)sulfamoyl) benzamide]", "IC50": 39}
{"smiles": "COc1ccc(S(=O)(=O)N[C@H]2CCOC2)cc1C(=O)Nc1ncc(F)c(C)n1", "note": "[Compound 172, (S)—N-(5-fluoro-4-methylpyrimidin-2-yl)-2-methoxy-5-(N-(tetrahydrofuran-3-yl)sulfamoyl)benzamide]", "IC50": 33}
{"smiles": "COc1ccc(S(=O)(=O)NCC(O)C(F)(F)F)cc1C(=O)Nc1ccc(F)c(C)n1", "note": "(single isomer, unassigned) [Compound 23a, (R*)—N-(5-fluoro-6-methylpyridin-2-yl)-2-methoxy-5-(N-(3,3,3-trifluoro-2-hydroxypropyl)sulfamoyl)benzamide]", "IC50": 4.7}
